According to US11389423B2, “Pharmaceutical composition, excipient for the composition and use of the composition” (priority 2018, dated 2022):

Legend:
[1] = system: polychromatic erythrocytes; details: rats male and female, 500, 1000 and 2000 mg/kg orally
Experimental: To perform the micronucleus test (Schmid, 1976), different groups of rats (male and female; n=10) received three doses of CBD (500, 1000 and 2000 mg/kg) orally. The negative control group received placebo by gavage and the positive control was treated with cyclophosphamide monohydrate (20 mg/kg—Sigma-Aldrich) intraperitoneally. After 24 hours (cyclophosphamide) and 48 hours (CBD-SINT and vehicle) the end of treatments, the animals were euthanized by decapitation. The femurs were removed, the proximal epiphysis was removed to expose the medullary canal and, with the aid of a 13×4.5 mm needle and 3 mL NaCl solution (150 mM), the marrow was removed, washing the medullary canal with NaCl solution. The material was transferred to glass tubes and centrifuged at 1000 rpm/5 min. After centrifugation, the supernatant was discarded, and the deposit was resuspended with a 4% formaldehyde solution and slightly homogenized with the aid of a Pasteur pipette. A drop of this cell suspension was placed on a clean, dry slide, and then the smear was performed. The slides were dried at room temperature and, after 24 hours, stained with Leishman eosin-methylene blue and subjected to microscopic analysis. To determine the number of micronuclei, 2000 polychromatic erythrocytes were counted per animal (1000 in each slide) using an optical microscope, at 400× magnification. The analysis of the slides was blind and performed by a single evaluator.

[2] = system: DNA of male and female rats; details: rats male and female, 500, 1000 and 2000 mg/kg orally, 48 hours, peripheral blood
Experimental: The negative control group received placebo by gavage and the positive control was treated with cyclophosphamide monohydrate (20 mg/kg—Sigma-Aldrich) intraperitoneally.

[3] = system: male rabbits; assay: Effects on central nervous system, modified Irwin test; format: in vivo, New Zealand rabbits; details: male rabbits, 17, 51 and 170 mg/kg by gavage, single dose
Experimental: (§1) Male New Zealand rabbits (n=6 per group) were used for pharmacological safety tests. All tests were performed orally (route recommended for humans) and the investigated parameters were determined after a single administration of CBD-SINT. CBD-SINT doses were determined by allometric extrapolation from the average dose used in human patients (25 mg/kg).
(§2) The dose of 51 mg/kg was used as the intermediate dose, stipulating a higher and a lower dose. Three dose ranges were used according to the Guide for Conducting Non-Clinical Toxicology and Pharmacological Safety Studies Necessary for Drug Development (ANVISA, 2013; Version 1.2). Thus, the doses used were 17, 51 and 170 mg/kg of CBD-SINT.
Effects on the central nervous system were assessed in male rabbits according to the modified Irwin test (Roux et al., 2005).
After 6 h-fasting, three doses of CBD (17, 51 and 170 mg/kg) were administered to different groups of male rabbits by gavage. Placebo was administered to the control group (1 mL/kg). The solid diet was released to the animals 1 hour after the treatments.
The clinical and behavioral effects were assessed at 0-15 min, 15, 30, 60, 120 and 180 min and 24 h after administrations. […]

[4] = system: male rabbits; assay: Effects on respiratory system, respiratory rate; format: in vivo, New Zealand rabbits; details: one hour after treatment
Experimental: as §1, §2
(§3) After 6-h fasting, three doses of CBD-SINT (17, 51 and 170 mg/kg) were administered to different groups of male rabbits by gavage. Placebo was administered to the control group (1 mL/kg). One hour after treatments, all rabbits remained conscious in the prone position. The respiratory rate was determined using a Kofranyi-Michaelis respirometer (Murphy, 2002). For arterial blood gas analysis, arterial blood samples were taken from the central ear artery and immediately processed. All parameters below were determined on a Cobas b 221 multiparametric blood gas analyzer (Roche Diagnostics, Rotkreuz, Switzerland): pH, PCO2 (mm Hg), PO2 (mm Hg), SO2(%), Htc (%), tHb (g/dL), Na+ (mmol/L), K+ (mmol/L), Ca2+ (mmol/L), Cl− (mmol/L), glucose (mg/dL), lactate (mmol/L), O2Hb (%), HHb (%), P50 (mm Hg), H+ (nmol/L), BE (nmol/L), BEecf (nmol/L), BB (mmol/L), cHCO3 (mmol/L), ctCO2 (B) (mmol/L), ctCO2 (P) (mmol/L) and ctO2 (% by volume).

[5] = system: male rabbits; assay: Arterial blood gas analysis; format: in vivo, New Zealand rabbits; details: male rabbits, 17, 51 and 170 mg/kg by gavage
Experimental: as §1, §2
as §3, with “Placebo was administered to the control group (1 mL/kg). One hour after treatments, all rabbits remained conscious in the prone position.” left out, “For arterial blood gas analysis, arterial blood samples were taken from the central ear artery and immediately processed.” left out

C=C(C)[C@@H]1CCC(C)=C[C@H]1c1c(O)cc(CCCCC)cc1O [CBD-SINT, Cannabidiol]
ratio of polychromatic/normochromatic erythrocytes (PCE/NCE ratio) vs placebo [1]: did not cause any significant change | MNPCE number vs placebo (C-) ([1]; 48 hours): in a similar way to that found for animals treated only with placebo | DNA damage (Damage Index and Damage Frequency) vs negative control (placebo) [2]: none of the tested doses of CBD-SINT induced any significant changes | animals' behavior or physiological status until the end of the 24 h [3]: no significant changes | inactivity or refusal to consume food or water during the observation period (24 h) [3]: none of the experimental animals was inactive or refused to consume food or water | respiratory rate ([4]; 17 mg/kg by gavage): 55±6.48 bpm | respiratory rate ([4]; 51 mg/kg by gavage): 57±5.43 bpm | respiratory rate ([4]; 170 mg/kg by gavage): 56±5.66 bpm | arterial blood gases, electrolytes and metabolites (pH, PCO2, PO2, SO2, Htc, tHb, Na+, K+, Ca2+, Cl-, glucose, lactate, O2Hb, HHb, P50, H+, BE, BEecf, BB, cHCO3, ctCO2, ctO2) vs placebo [5]: none of the CBD-SINT doses changed
